From patent US20210275419A1, “Personal Care Compositions” (Colgate-Palmolive Company, priority 2020, published 2021)

System: tyrosinase
Experiment: tyrosinase inhibitor screening kit (Sigma Aldrich, MAK 257 Kit)
Assay type: biochemical
Conditions: Example 4; 0.156 wt. %
Procedure: (§1) The anti-tyrosinase activity of an exemplary composition of the present invention was compared to the anti-tyrosinase activity of individual short chain fatty acids. Assays were performed using a tyrosinase inhibitor screening kit from Sigma Aldrich; and following the manufacturer's protocol. The results of these experiments are described in Table 1 (below).
as §1, with “Aldrich (MAK 257 Kit);” for “Aldrich;”, “4” for “1”, “(below). […]” for “(below).”
Peels were diluted 1000× in buffer to prepare 0.1% working stock. […] The pH of all test samples and dilutions was measured before and after tyrosinase assay to exclude any effect of acid on the enzyme activity. […] LMP peels containing various concentrations of pyruvic acid at pH 2.5 (“R1 Peels”); LMP peels which were identically formulated to the R1 Peels, but with pH buffered to 3.6 (“R2 Peels”); and LMP′ peels which were identically formulated to the R2 Peels, other than the replacement of pyruvic acid with sodium pyruvate (“R3 Peels”), were all evaluated.

With O=C(O)C(O)c1ccccc1 (stereo not shown) [Mandelic Acid (M), Mandelic Acid] the “% Tyrosinase Inhibition” value was 0.06%.
